According to PubChem BioAssay AID1259408 (Genetic Toxicology Data Bank (GENE-TOX), 2018):
Calls of active or inactive are those of the source. The rule behind the calls is not given here. Numbered stars: 1 amine (or outer) side, 2 acyl side, 3 side chain; on linkers, the order of the positions; unused ones are H or OH. Bridge positions count the residues as written; N and C are the ends. Square brackets hold non-standard residues; d marks the D form. Peptide text beside a SMILES is read from it. I, II: the chains in the order shown. Actinocin(9to1) = Cc1c2oc3c(C)ccc(C(=O)[*:1])c3nc-2c(C(=O)[*:2])c(N)c1=O; NMeV = CN[C@H](C(=O)O)C(C)C; Sar = CNCC(=O)O

Tested on: GENE-TOX genotoxicity assays, various organisms and cells
Assay: GENE-TOX mutagenicity studies
Conditions: for call: Assay Type: In vivo carcinogenicity studies
[1] = Species/Cell Type: Allium cepa, Assay Type: Chromosome aberrations, Assay Code: ALC+, Evaluation Type: Evaluation A (Pre-1980)
[2] = Species/Cell Type: Human lymphocytes, Assay Type: Sister-chromatid exchange (SCE) in vivo, Assay Code: SCY+, Evaluation Type: Evaluation B (Post-1980)
[3] = Species/Cell Type: Salmonella typhimurium (one or more of the five standard strains: TA98, TA100, TA1535, TA1537, and TA1538), Assay Type: Histidine reverse gene mutation, Ames assay, Assay Code: SAL+, Evaluation Type: Evaluation A (Pre-1980)
[4] = Species/Cell Type: Human lymphocytes, Assay Type: Sister-chromatid exchange (SCE) in vitro, Assay Code: SCL+, Evaluation Type: Evaluation B (Post-1980)
[5] = Species/Cell Type: Nonhuman, Assay Code: CCG+, Evaluation Type: Evaluation A (Pre-1980)
[6] = Species/Cell Type: Escherichia coli polA (W3119 vs P3478), Assay Type: Rec-assay, DNA effects (bacterial DNA repair), Assay Code: RE1+, Evaluation Type: Evaluation A (Pre-1980)

Cc1c2oc3c(C)ccc(C(=O)N[C@@H]4C(=O)N[C@H](C(C)C)C(=O)N5CCC[C@H]5C(=O)N(C)CC(=O)N(C)[C@@H](C(C)C)C(=O)O[C@@H]4C)c3nc-2c(C(=O)N[C@@H]2C(=O)N[C@H](C(C)C)C(=O)N3CCC[C@H]3C(=O)N(C)CC(=O)N(C)[C@@H](C(C)C)C(=O)O[C@@H]2C)c(N)c1=O (I: T[dV]P[Sar][NMeV] / II: T[dV]P[Sar][NMeV]; ester I:1-I:C, II:1-II:C; linker I:N-II:N via Actinocin(9to1))
mutagenic call [1]: active; positive
mutagenic call (Species/Cell Type: Chinese hamster lung (V79) cells, Assay Type: Forward gene mutation at the HPRT or ouabain locus, Assay Code: V79-, Evaluation Type: Evaluation A (Pre-1980)): inactive; negative
mutagenic call (Species/Cell Type: Chinese hamster ovary (CHO) cells, Assay Type: Forward gene mutation at the HPRT locus, Assay Code: CHO+, Evaluation Type: Evaluation B (Post-1980)): active; positive
mutagenic call (Species/Cell Type: Drosophila melanogaster, Assay Type: Aneuploidy, sex chromosome gain, chromosome aberrations, Assay Code: DAG+F, Evaluation Type: Evaluation A (Pre-1980)): active; positive
mutagenic call (Species/Cell Type: Drosophila melanogaster, Assay Type: Aneuploidy, whole sex chromosome loss, chromosome aberrations, Assay Code: DAC+F, Evaluation Type: Evaluation A (Pre-1980)): active; positive
mutagenic call (Species/Cell Type: Drosophila melanogaster, Assay Type: Sex-linked recessive lethal gene mutation, Assay Code: SRLT, Evaluation Type: Evaluation A (Pre-1980)): no conclusion
mutagenic call (Species/Cell Type: Escherichia coli polA (W3119 vs P3478), Assay Type: Rec-assay, DNA effects (bacterial DNA repair), Assay Code: RE1T, Evaluation Type: Evaluation A (Pre-1980)): no conclusion
mutagenic call (Species/Cell Type: Glycine max (soybean), Assay Type: Gene mutation, Assay Code: GLM+, Evaluation Type: Evaluation A (Pre-1980)): active; positive
mutagenic call (Species/Cell Type: Human cell culture, Assay Type: Chromosome aberrations in vitro, Assay Code: CYZ+D, Dose Response: With dose response, Evaluation Type: Evaluation A (Pre-1980)): active; positive
mutagenic call [2]: active; positive
mutagenic call (Species/Cell Type: Mammalian polychromatic erythrocytes, Assay Type: Micronucleus test, chromosome aberrations, Assay Code: MNTT, Evaluation Type: Evaluation A (Pre-1980)): no conclusion
mutagenic call (Species/Cell Type: Mouse (C3H/10T1/2) cells, Assay Type: Cell transformation, Assay Code: CTH+, Evaluation Type: Evaluation A (Pre-1980)): active; positive
mutagenic call (Species/Cell Type: Mouse, Sex: Male, Assay Type: Sperm morphology, Assay Code: SPI+, Evaluation Type: Evaluation A (Pre-1980)): active; positive
mutagenic call (Species/Cell Type: Neurospora crassa, Assay Type: Forward gene mutation, Assay Code: NEF+, Evaluation Type: Evaluation A (Pre-1980)): active; positive
mutagenic call (Species/Cell Type: Nonhuman, Assay Type: Chromosome aberrations in vitro, Assay Code: CY&+, Evaluation Type: Evaluation A (Pre-1980)): active; positive
call (Species/Cell Type: Nonhuman, Assay Code: CCG+L, Evaluation Type: Evaluation A (Pre-1980)): active; positive
mutagenic call (Species/Cell Type: Nonhuman, Assay Type: Sister-chromatid exchange (SCE) in vitro, Assay Code: SC2+, Evaluation Type: Evaluation A (Pre-1980)): active; positive
mutagenic call (Species/Cell Type: Nonhuman, Assay Type: Sister-chromatid exchange (SCE) in vivo, Assay Code: SC3+, Evaluation Type: Evaluation B (Post-1980)): active; positive
mutagenic call (Species/Cell Type: Saccharomyces cerevisiae, Assay Type: Forward gene mutation, Assay Code: YEFT, Evaluation Type: Evaluation A (Pre-1980)): no conclusion

O=[Se](O)O
mutagenic call (Species/Cell Type: Bacillus subtilis (H17 vs M45), Assay Type: Rec-assay, spot test, DNA effects (bacterial DNA repair), Assay Code: REW+, Evaluation Type: Evaluation A (Pre-1980)): active; positive
mutagenic call (Species/Cell Type: Bacillus subtilis (H17 vs M45), Assay Type: Rec-assay, spot test, DNA effects (bacterial DNA repair), Assay Code: REW-, Evaluation Type: Evaluation A (Pre-1980)): inactive; negative
mutagenic call (Species/Cell Type: Human lymphocytes, Assay Type: Sister-chromatid exchange (SCE) in vitro, Assay Code: SCL+D, Dose Response: With dose response, Evaluation Type: Evaluation A (Pre-1980)): active; positive
mutagenic call [2]: active; positive
mutagenic call (Species/Cell Type: Human, Assay Type: Sister-chromatid exchange (SCE) in vitro, Assay Code: SC1+D, Dose Response: With dose response, Evaluation Type: Evaluation A (Pre-1980)): active; positive
mutagenic call (Species/Cell Type: Nonhuman, Assay Type: Sister-chromatid exchange (SCE) in vitro, Assay Code: SC2+D, Dose Response: With dose response, Evaluation Type: Evaluation B (Post-1980)): active; positive
mutagenic call (Species/Cell Type: Nonhuman, Assay Type: Sister-chromatid exchange (SCE) in vivo, Assay Code: SC3+D, Dose Response: With dose response, Evaluation Type: Evaluation B (Post-1980)): active; positive
mutagenic call [3]: active; positive

C=C(C)c1ccccc1
mutagenic call [4]: active; positive
mutagenic call (Species/Cell Type: Human, Assay Type: Sister-chromatid exchange (SCE) in vitro, Assay Code: SC1+, Evaluation Type: Evaluation B (Post-1980)): active; positive

O=C(O)c1ccccc1NCCc1ccccc1
mutagenic call (Species/Cell Type: Mammalian polychromatic erythrocytes, Assay Type: Micronucleus test, chromosome aberrations, Assay Code: MNTT, Evaluation Type: Evaluation B (Post-1980)): no conclusion

C=Cc1cn([C@H]2C[C@H](O)[C@@H](CO)O2)c(=O)[nH]c1=O
mutagenic call [4]: active; positive
mutagenic call (Species/Cell Type: Human, Assay Type: Sister-chromatid exchange (SCE) in vitro, Assay Code: SC1+D, Dose Response: With dose response, Evaluation Type: Evaluation B (Post-1980)): active; positive

c1ccc(N=NNc2ccccc2)cc1
mutagenic call [1]: active; positive

O=C1NCCN1/N=C/c1ccc([N+](=O)[O-])o1
call [5]: active; positive

CC1=NN(c2ccc([N+](=O)[O-])cc2)C(=O)C1[N+](=O)[O-] (centres undefined)
mutagenic call [6]: active; positive
mutagenic call [3]: active; positive

CCN(CC)C(=S)S
call (Species/Cell Type: Nonhuman, Assay Code: CCG-, Evaluation Type: Evaluation A (Pre-1980)): inactive; negative
mutagenic call (Species/Cell Type: Vicia faba, Assay Type: Chromosome aberrations, Assay Code: VIC+, Evaluation Type: Evaluation A (Pre-1980)): active; positive

C1N2CN3CN1CN(C2)C3
mutagenic call [6]: active; positive

COc1ccc(/C=N/NC(=O)COc2ccc(Br)cc2CN2CCOCC2)cc1
mutagenic call (Species/Cell Type: Saccharomyces cerevisiae, Assay Type: Reverse gene mutation, Assay Code: YERT, Evaluation Type: Evaluation A (Pre-1980)): no conclusion

c1cc2ccc3cc4c(c5ccc(c1)c2c35)[C@H]1O[C@H]1CC4
mutagenic call (Species/Cell Type: Chinese hamster lung (V79) cells, Assay Type: Forward gene mutation at the HPRT or ouabain locus, Assay Code: V79+, Evaluation Type: Evaluation A (Pre-1980)): active; positive
mutagenic call (Species/Cell Type: Mouse prostate cells, Assay Type: Cell transformation, Assay Code: CTM-, Evaluation Type: Evaluation A (Pre-1980)): inactive; negative
call (Species/Cell Type: Nonhuman, Assay Code: CCGT, Evaluation Type: Evaluation A (Pre-1980)): no conclusion
mutagenic call [3]: active; positive

C[CH2][Pb]([CH2]C)([CH2]C)[CH2]C
mutagenic call (Species/Cell Type: Syrian hamster embryo (SA7/SHE) cells, Assay Type: Cell transformation, viral enhanced, Assay Code: CT7+, Evaluation Type: Evaluation A (Pre-1980)): active; positive

O=[N+]([O-])c1ccc(/C=C/c2cnc(N(CO)CO)nn2)o1
call [5]: active; positive

Cc1ncc(CO)c(C(=O)O)c1O
mutagenic call (Species/Cell Type: Human lymphocytes, Assay Type: Sister-chromatid exchange (SCE) in vitro, Assay Code: SCLT, Evaluation Type: Evaluation B (Post-1980)): no conclusion
mutagenic call (Species/Cell Type: Human, Assay Type: Sister-chromatid exchange (SCE) in vitro, Assay Code: SC1T, Evaluation Type: Evaluation B (Post-1980)): no conclusion

CC(C)N(C(=O)CCl)c1ccccc1
mutagenic call (Species/Cell Type: Saccharomyces cerevisiae, Assay Type: Mitotic recombination or gene conversion, Assay Code: YEC+, Evaluation Type: Evaluation A (Pre-1980)): active; positive

O=[N+]([O-])C1c2ccccc2-c2ccccc21
mutagenic call (Species/Cell Type: Escherichia coli WP2 UVRA, Assay Type: Tryptophan reverse gene mutation, Assay Code: WPU+, Evaluation Type: Evaluation A (Pre-1980)): active; positive

COc1ccc2c3c([nH]c2c1)[C@H](CC(C)(C)O)N1C(=O)[C@@H]2CCCN2C(=O)[C@]1(O)[C@H]3O
mutagenic call (Species/Cell Type: Salmonella typhimurium (one or more of the five standard strains: TA98, TA100, TA1535, TA1537, and TA1538), Assay Type: Histidine reverse gene mutation, Ames assay, Assay Code: SALT, Evaluation Type: Evaluation A (Pre-1980)): no conclusion

CCOC(=O)NC(=S)Nc1ccccc1NC(=S)NC(=O)OCC
mutagenic call (Species/Cell Type: Aspergillus nidulans, Assay Type: Aneuploidy, chromosome aberrations, Assay Code: ASN+, Evaluation Type: Evaluation A (Pre-1980)): active; positive
mutagenic call (Species/Cell Type: Aspergillus nidulans, Assay Type: Mitotic recombination, Assay Code: ASGT, Evaluation Type: Evaluation A (Pre-1980)): no conclusion

COC(C)C(O)(C(=O)OCC1=CC[N+]2([O-])CC[C@H](O)[C@H]12)C(C)C (some centres undefined)
mutagenic call (Species/Cell Type: Drosophila melanogaster, Assay Type: Sex-linked recessive lethal gene mutation, Assay Code: SRL+, Evaluation Type: Evaluation A (Pre-1980)): active; positive
